Among the data in patent US12281125B2, “Rapamycin derivatives” (NOVARTIS AG, priority 2018, dated 2025) are IC50 values, retold here.

pIC50: −log10 of the molar value. Where only a bound is given, the exact number is not on record here.

This experiment has as its system mTORc1 signaling, pS6 (Ser240/244) in MEF TSCl−/− cells. The experiment in a line: Cell-based assay for rapalog potency (pS6) in MEF TSCl−/− cells. Particulars: Mus musculus, 2 hours treatment, average from multiple assays. Here is the method:
Rapalog potency was determined using MEF TSCl−/− cell based assay. MEF TSCl−/− cells are Mouse Embryonic Fibroblasts deficient in Tuberous sclerosis protein—TSCl, which negatively regulates mTORc1 signaling and thus display constitutive mTORc1 activation, resulting in phosphorylation (activation) of downstream molecules. This cell-based assay is used to measure inhibition (de-phosphorylation) of S6 and 4EBP1 by rapalogs or other mTOR inhibitors.
MEF TSCl−/− cells were plated on Poly-D-lysine coated 384 well Griener clear bottom plates and incubated overnight at 37° C., 5% CO2. On the following day, cells were washed 8 times with “Hard starve” solution (1 L DPBS+1 g D-(+) glucose+10 ml of 7.5% Sodium Bicarbonate+20 ml of 1M HEPES) and incubated for further 2 hours in the same solution. Cells were next treated with compounds with decreasing concentrations (8 points at 3.16 fold dilutions) and incubated for 2 hours at 37° C., 5% CO2. Cells were fixed with 4% paraformaldehyde for 30 min and washed 5 times with TBS-EDTA followed by immuno-staining with fluorescent tag labeled antibodies for pS6 (Ser240/244) (Cell Signaling #9468) and p4EBP1 (Thr 37/46) (Cell Signaling #5123). Nuclei were visualized with Hoechst (ThermoFisher Scientific #H3570) staining. Cells were imaged (InCell 600) using respective fluorescence channels and the potency of mTOR inhibitors was defined by pS6 IC50 (nM).
In vitro potency of mTOR inhibitors was defined by pS6 IC50 (nM) in MEF TSCl−/− cells.
IC50 values are calculated as the average from multiple assays.
Turning to `CO[C@@H]1C[C@H](C[C@@H](C)[C@@H]2CC[C@H](C)/C=C(\C)[C@@H](O)[C@@H](OC)C(=O)[C@H](C)C[C@H](C)/C=C/C=C/C=C(\C)[C@@H](NS(=O)(=O)CCO)C[C@@H]3CC[C@@H](C)[C@@](O)(O3)C(=O)C(=O)N3CCCC[C@H]3C(=O)O2)CC[C@H]1O` [Compound 19], the pIC50 (as a rule, the IC50 on a negative log10 scale, so that one unit is a factor of ten) is 9.47.

Compound `CO[C@@H]1C[C@H](C[C@@H](C)[C@@H]2CC[C@H](C)/C=C(\C)[C@@H](O)[C@@H](OC)C(=O)[C@H](C)C[C@H](C)/C=C/C=C/C=C(\C)[C@H](NS(=O)(=O)CCO)C[C@@H]3CC[C@@H](C)[C@@](O)(O3)C(=O)C(=O)N3CCCC[C@H]3C(=O)O2)CC[C@H]1O` [Compound 20] gave a pIC50 of 8.77. To `CO[C@@H]1C[C@H](C[C@@H](C)[C@@H]2CC[C@H](C)/C=C(\C)[C@@H](O)[C@@H](OC)C(=O)[C@H](C)C[C@H](C)/C=C/C=C/C=C(\C)[C@H](NS(C)(=O)=O)C[C@@H]3CC[C@@H](C)[C@@](O)(O3)C(=O)C(=O)N3CCCC[C@H]3C(=O)O2)CC[C@@H]1n1cnnn1` [Compound 21] belongs 8.68; to `CO[C@@H]1C[C@H](C[C@@H](C)[C@@H]2CC[C@H](C)/C=C(\C)[C@@H](O)[C@@H](OC)C(=O)[C@H](C)C[C@H](C)/C=C/C=C/C=C(\C)[C@@H](NS(C)(=O)=O)C[C@@H]3CC[C@@H](C)[C@@](O)(O3)C(=O)C(=O)N3CCCC[C@H]3C(=O)O2)CC[C@@H]1n1cnnn1` [Compound 22], 9.96. For the compound `CO[C@@H]1C[C@H](C[C@@H](C)[C@@H]2CC[C@H](C)/C=C(\C)[C@@H](O)[C@@H](OC)C(=O)[C@H](C)C[C@H](C)/C=C/C=C/C=C(\C)[C@H](NS(C)(=O)=O)C[C@@H]3CC[C@@H](C)[C@@](O)(O3)C(=O)C(=O)N3CCCC[C@H]3C(=O)O2)CC[C@H]1OP(C)(C)=O` [Compound 23], the pIC50 is 7.59. To `CO[C@@H]1C[C@H](C[C@@H](C)[C@@H]2CC[C@H](C)/C=C(\C)[C@@H](O)[C@@H](OC)C(=O)[C@H](C)C[C@H](C)/C=C/C=C/C=C(\C)[C@H](NS(C)(=O)=O)C[C@@H]3CC[C@@H](C)[C@@](O)(O3)C(=O)C(=O)N3CCCC[C@H]3C(=O)O2)CC[C@H]1OCCO` [Compound 25] belongs 8.74. To `CO[C@@H]1C[C@H](C[C@@H](C)[C@@H]2CC[C@H](C)/C=C(\C)[C@@H](O)[C@@H](OC)C(=O)[C@H](C)C[C@H](C)/C=C/C=C/C=C(\C)[C@@H](N(C)S(C)(=O)=O)C[C@@H]3CC[C@@H](C)[C@@](O)(O3)C(=O)C(=O)N3CCCC[C@H]3C(=O)O2)CC[C@H]1OP(C)(C)=O` [Compound 27] belongs 8.72.

`CO[C@@H]1C[C@H](C[C@@H](C)[C@@H]2CC[C@H](C)/C=C(\C)[C@@H](O)[C@@H](OC)C(=O)[C@H](C)C[C@H](C)/C=C/C=C/C=C(\C)[C@@H](N)C[C@@H]3CC[C@@H](C)[C@@](O)(O3)C(=O)C(=O)N3CCCC[C@H]3C(=O)O2)CC[C@H]1O` [Compound 28] had a pIC50 of 9.46. To `CO[C@@H]1C[C@H](C[C@@H](C)[C@@H]2CC[C@H](C)/C=C(\C)[C@@H](O)[C@@H](OC)C(=O)[C@H](C)C[C@H](C)/C=C/C=C/C=C(\C)[C@H](N)C[C@@H]3CC[C@@H](C)[C@@](O)(O3)C(=O)C(=O)N3CCCC[C@H]3C(=O)O2)CC[C@H]1O` [Compound 29] belongs 7.52; to `CN[C@@H]1C[C@@H]2CC[C@@H](C)[C@@](O)(O2)C(=O)C(=O)N2CCCC[C@H]2C(=O)O[C@H]([C@H](C)C[C@@H]2CC[C@@H](O)[C@H](OC)C2)CC[C@H](C)/C=C(\C)[C@@H](O)[C@@H](OC)C(=O)[C@H](C)C[C@H](C)/C=C/C=C/C=C/1C` [Compound 32], 7.74; to `CN[C@H]1C[C@@H]2CC[C@@H](C)[C@@](O)(O2)C(=O)C(=O)N2CCCC[C@H]2C(=O)O[C@H]([C@H](C)C[C@@H]2CC[C@@H](O)[C@H](OC)C2)CC[C@H](C)/C=C(\C)[C@@H](O)[C@@H](OC)C(=O)[C@H](C)C[C@H](C)/C=C/C=C/C=C/1C` [Compound 33], 9.17. For the compound `CO[C@@H]1C[C@H](C[C@@H](C)[C@@H]2CC[C@H](C)/C=C(\C)[C@@H](O)[C@@H](OC)C(=O)[C@H](C)C[C@H](C)/C=C/C=C/C=C(\C)[C@H](N(O)C(=O)OC(C)(C)C)C[C@@H]3CC[C@@H](C)[C@@](O)(O3)C(=O)C(=O)N3CCCC[C@H]3C(=O)O2)CC[C@H]1O` [Compound 34], the pIC50 was 7.57. To `CO[C@@H]1C[C@H](C[C@@H](C)[C@@H]2CC[C@H](C)/C=C(\C)[C@@H](O)[C@@H](OC)C(=O)[C@H](C)C[C@H](C)/C=C/C=C/C=C(\C)[C@@H](N(O)C(=O)OC(C)(C)C)C[C@@H]3CC[C@@H](C)[C@@](O)(O3)C(=O)C(=O)N3CCCC[C@H]3C(=O)O2)CC[C@H]1O` [Compound 35] belongs 8.36; to `CO[C@@H]1C[C@H](C[C@@H](C)[C@@H]2CC[C@H](C)/C=C(\C)[C@@H](O)[C@@H](OC)C(=O)[C@H](C)C[C@H](C)/C=C/C=C/C=C(\C)[C@H](NO)C[C@@H]3CC[C@@H](C)[C@@](O)(O3)C(=O)C(=O)N3CCCC[C@H]3C(=O)O2)CC[C@H]1O` [Compound 36], 8.80; to `CO[C@@H]1C[C@H](C[C@@H](C)[C@@H]2CC[C@H](C)/C=C(\C)[C@@H](O)[C@@H](OC)C(=O)[C@H](C)C[C@H](C)/C=C/C=C/C=C(\C)[C@@H](NO)C[C@@H]3CC[C@@H](C)[C@@](O)(O3)C(=O)C(=O)N3CCCC[C@H]3C(=O)O2)CC[C@H]1O` [Compound 37], 9.68. To `CO[C@@H]1C[C@H](C[C@@H](C)[C@@H]2CC[C@H](C)/C=C(\C)[C@@H](O)[C@@H](OC)C(=O)[C@H](C)C[C@H](C)/C=C/C=C/C=C(\C)[C@@H](NCCS(=O)(=O)O)C[C@@H]3CC[C@@H](C)[C@@](O)(O3)C(=O)C(=O)N3CCCC[C@H]3C(=O)O2)CC[C@H]1O` [Compound 38] belongs less than 6.30; to `CO[C@@H]1C[C@H](C[C@@H](C)[C@@H]2CC[C@H](C)/C=C(\C)[C@@H](O)[C@@H](OC)C(=O)[C@H](C)C[C@H](C)/C=C/C=C/C=C(\C)[C@H](NCCS(=O)(=O)O)C[C@@H]3CC[C@@H](C)[C@@](O)(O3)C(=O)C(=O)N3CCCC[C@H]3C(=O)O2)CC[C@H]1O` [Compound 39], less than 6.30.

In the case of `CO[C@@H]1C[C@H](C[C@@H](C)[C@@H]2CC[C@H](C)/C=C(\C)[C@@H](O)[C@@H](OC)C(=O)[C@H](C)C[C@H](C)/C=C/C=C/C=C(\C)[C@@H](NCCS(=O)(=O)O)C[C@@H]3CC[C@@H](C)[C@@](O)(O3)C(=O)C(=O)N3CCCC[C@H]3C(=O)O2)CC[C@H]1OCCO` [Compound 40], the pIC50 is 6.80. To `CO[C@@H]1C[C@H](C[C@@H](C)[C@@H]2CC[C@H](C)/C=C(\C)[C@@H](O)[C@@H](OC)C(=O)[C@H](C)C[C@H](C)/C=C/C=C/C=C(\C)[C@H](NCCS(=O)(=O)O)C[C@@H]3CC[C@@H](C)[C@@](O)(O3)C(=O)C(=O)N3CCCC[C@H]3C(=O)O2)CC[C@H]1OCCO` [Compound 41] belongs 7.48. To `CO[C@@H]1C[C@H](C[C@@H](C)[C@@H]2CC[C@H](C)/C=C(\C)[C@@H](O)[C@@H](OC)C(=O)[C@H](C)C[C@H](C)/C=C/C=C/C=C(\C)C(NC(=O)OC(C)(C)C)C[C@@H]3CC[C@@H](C)[C@@](O)(O3)C(=O)C(=O)N3CCCC[C@H]3C(=O)O2)CC[C@H]1O` (some centres unmarked) [Intermediate 8] belongs 9.74.
